Experimental data reported in paper PMC12176262 (The Febs Journal, 2025).
Read-outs that look alike come from different tables or passages of the source.

What was measured:
MCM6 = details: ref [56], cited from earlier work
[1] = molecular target: T1, MCM6 winged-helix domain (WHD) C721S mutant, residues 708-821 (human, UniProt Q14566 708-821, C721S); test: fluorescence polarisation
T1 sequence (looked up): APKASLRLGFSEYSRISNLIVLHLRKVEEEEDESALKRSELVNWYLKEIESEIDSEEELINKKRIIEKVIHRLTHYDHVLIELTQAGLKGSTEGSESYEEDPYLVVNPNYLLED

Molecule: Bloom syndrome helicase [BLM]
- interaction with MCM6 (MCM6; both MBD-C and D regions mutated): weakened the interaction
- interaction with MCM6 (MCM6; either MBD-C or D regions deleted): do not interact

Molecule: WLSSDVICI (peptide, UniProt P54132 230-238, looked up) [BLM MCM6 binding domain C peptide (BLM 230-238), unlabeled]
- fold, competition of MBD-C against FITC-MBD-C relative to FITC-MBD-D [1]: 1.7 fold
